{"source": "paper PMC3273674", "about": "(Biochimica et Biophysica Acta, 2011)", "test_system": "dsDNA ([…])", "assay": "DNA binding by fluorescence intercalator displacement", "conditions": "C50 normalized compared to BF2", "note": "Where no end group is shown, it is not given here."}
{"compound": "CC(C)C[C@H](NC(=O)CNC(=O)[C@H](C)NC(=O)[C@H](CCCNC(=N)N)NC(=O)[C@H](CO)NC(=O)[C@H](CO)NC(=O)[C@H](CCCNC(=N)N)NC(=O)[C@@H](N)[C@@H](C)O)C(=O)N[C@@H](CCC(N)=O)C(=O)N[C@@H](Cc1c[nH]c2ccccc12)C(=O)N1CCC[C@H]1C(=O)N[C@H](C(=O)NCC(=O)N[C@@H](CCCNC(=N)N)C(=O)N[C@H](C(=O)N[C@@H](Cc1c[nH]cn1)C(=O)N[C@@H](CCCNC(=N)N)C(=O)N[C@@H](CC(C)C)C(=O)N[C@@H](CC(C)C)C(=O)N[C@@H](CCCNC(=N)N)C(=O)N[C@@H](CCCCN)C(=O)O)C(C)C)C(C)C", "note": "[BF2]", "values": [{"measurement": "Relative C50", "result": 1}]}
{"compound": "KVLRDNIQGWTKPAIRRLARRG [DesHDAP3]", "values": [{"measurement": "Relative C50", "result": 1.09}]}
